Measurements taken from patent US9637472B2, “Substituted 6,5-fused bicyclic heteroaryl compounds” (Epizyme, Inc., priority 2011, dated 2017).

Target: EZH2 (Homo sapiens (Human), UniProt Q15910)
Experiment: PRC2 enzyme assay on peptide substrates
Format: biochemical
Details: PRC2 enzyme assays on peptide substrates; 4 nM enzyme, 30 min preincubation at 25° C.; read-out: EZH2 IC50

EZH2, sequence (Q15910 other isoform, or with tags, fused parts or gaps): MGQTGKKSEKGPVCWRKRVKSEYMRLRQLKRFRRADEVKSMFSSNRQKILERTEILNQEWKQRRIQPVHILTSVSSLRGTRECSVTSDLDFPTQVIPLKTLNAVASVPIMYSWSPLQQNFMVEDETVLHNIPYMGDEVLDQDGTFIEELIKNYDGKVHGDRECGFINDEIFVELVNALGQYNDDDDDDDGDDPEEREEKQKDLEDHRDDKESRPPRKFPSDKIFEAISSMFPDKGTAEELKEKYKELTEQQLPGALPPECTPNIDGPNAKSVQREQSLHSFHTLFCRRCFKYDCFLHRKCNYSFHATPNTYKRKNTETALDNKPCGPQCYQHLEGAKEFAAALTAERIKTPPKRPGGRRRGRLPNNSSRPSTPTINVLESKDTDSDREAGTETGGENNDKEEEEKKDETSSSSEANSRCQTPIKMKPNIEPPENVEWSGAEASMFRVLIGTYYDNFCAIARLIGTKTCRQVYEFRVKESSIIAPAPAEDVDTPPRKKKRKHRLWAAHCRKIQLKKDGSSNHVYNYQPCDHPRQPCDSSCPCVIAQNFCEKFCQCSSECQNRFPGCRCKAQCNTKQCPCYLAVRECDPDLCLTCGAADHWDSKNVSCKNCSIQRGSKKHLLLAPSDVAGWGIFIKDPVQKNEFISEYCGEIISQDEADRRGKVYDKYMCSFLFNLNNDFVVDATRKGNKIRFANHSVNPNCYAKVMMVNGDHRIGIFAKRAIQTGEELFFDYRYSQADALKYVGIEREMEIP
EZH2, sequence (O75530 whole entry partner): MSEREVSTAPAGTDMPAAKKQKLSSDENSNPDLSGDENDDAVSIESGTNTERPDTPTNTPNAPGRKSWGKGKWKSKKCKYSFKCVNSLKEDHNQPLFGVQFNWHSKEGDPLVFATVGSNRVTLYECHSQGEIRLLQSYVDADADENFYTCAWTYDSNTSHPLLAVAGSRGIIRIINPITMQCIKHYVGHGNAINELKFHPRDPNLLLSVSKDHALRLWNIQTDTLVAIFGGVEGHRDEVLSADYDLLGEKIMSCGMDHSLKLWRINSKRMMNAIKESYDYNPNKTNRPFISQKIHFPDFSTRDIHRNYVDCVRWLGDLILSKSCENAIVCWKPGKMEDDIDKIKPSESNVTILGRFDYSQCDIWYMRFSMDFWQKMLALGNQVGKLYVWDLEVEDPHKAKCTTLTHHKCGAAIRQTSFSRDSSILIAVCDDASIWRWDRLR
EZH2, sequence (Q15022 whole entry partner): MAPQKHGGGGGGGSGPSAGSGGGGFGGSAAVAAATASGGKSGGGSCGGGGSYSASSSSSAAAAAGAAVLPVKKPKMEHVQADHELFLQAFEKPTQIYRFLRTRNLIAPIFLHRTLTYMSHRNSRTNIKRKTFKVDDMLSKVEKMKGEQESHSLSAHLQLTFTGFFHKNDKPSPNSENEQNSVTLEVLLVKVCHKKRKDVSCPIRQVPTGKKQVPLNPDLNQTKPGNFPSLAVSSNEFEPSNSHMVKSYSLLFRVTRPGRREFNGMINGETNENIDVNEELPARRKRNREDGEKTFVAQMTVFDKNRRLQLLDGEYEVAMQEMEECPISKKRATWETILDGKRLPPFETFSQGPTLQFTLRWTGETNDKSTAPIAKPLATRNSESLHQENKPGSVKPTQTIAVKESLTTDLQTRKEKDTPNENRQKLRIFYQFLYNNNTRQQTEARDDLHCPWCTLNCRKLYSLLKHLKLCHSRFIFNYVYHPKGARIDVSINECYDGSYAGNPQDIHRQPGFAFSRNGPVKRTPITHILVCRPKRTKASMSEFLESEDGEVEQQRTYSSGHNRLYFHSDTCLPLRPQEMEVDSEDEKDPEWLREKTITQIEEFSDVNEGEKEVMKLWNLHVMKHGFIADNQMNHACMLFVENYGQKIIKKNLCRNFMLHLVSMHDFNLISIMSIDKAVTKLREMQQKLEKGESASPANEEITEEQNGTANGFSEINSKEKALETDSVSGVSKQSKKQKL
EZH2, sequence (Q09028 whole entry partner): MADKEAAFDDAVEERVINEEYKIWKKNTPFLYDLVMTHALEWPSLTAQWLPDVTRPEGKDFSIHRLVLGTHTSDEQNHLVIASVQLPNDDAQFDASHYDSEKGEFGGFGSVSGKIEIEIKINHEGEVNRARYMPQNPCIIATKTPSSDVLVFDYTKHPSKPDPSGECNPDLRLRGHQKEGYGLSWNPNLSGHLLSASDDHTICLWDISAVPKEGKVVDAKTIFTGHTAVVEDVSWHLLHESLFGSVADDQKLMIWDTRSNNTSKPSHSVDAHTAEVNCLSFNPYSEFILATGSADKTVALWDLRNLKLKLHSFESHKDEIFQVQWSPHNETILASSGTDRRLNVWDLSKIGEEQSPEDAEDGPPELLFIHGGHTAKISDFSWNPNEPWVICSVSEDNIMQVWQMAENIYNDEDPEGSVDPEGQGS

Compound | IC50 [µM]
Cc1[nH]c(=O)c(CNC(=O)c2cc(C3=CC(C)(C)NC(C)(C)C3)nc3c2cnn3C(C)C)c(C)c1C [Compound B-139] | 3 to 10
Cc1cc(C)c(CNC(=O)c2cc(C(=O)NCCN(C)C)nc3c2cnn3C(C)C)c(=O)[nH]1 [Compound B-140] | 3 to 10
Cc1cc(C)c(CNC(=O)c2cc(C(=O)N(C)C)nc3c2cnn3C(C)C)c(=O)[nH]1 [Compound B-141] | 3 to 10
Cc1cc(C)c(CNC(=O)c2cc(C3CCCCC3)nc3c2cnn3C(C)C)c(=O)[nH]1 [Compound B-142] | 3 to 10
Cc1[nH]c(=O)c(CNC(=O)c2cc(C3=CC(C)(C)NC(C)(C)C3)nc3c2cnn3C(C)C)c(C)c1Cc1ccccc1 [Compound B-143] | 3 to 10
Cc1cc(C)c(CNC(=O)c2cc(C3=CC(C)(C)NC(C)(C)C3)nc3c2cnn3CCC#N)c(=O)[nH]1 [Compound B-144] | 3 to 10
Cc1[nH]c(=O)c(CNC(=O)c2cc(C3CC(C)(C)NC(C)(C)C3)nc3c2cnn3C(C)C)c(C)c1Cc1ccccc1 [Compound B-145] | 10 to 50
Cc1cc(C)c(CNC(=O)c2cc(C3=CC(C)(C)NC(C)(C)C3)nc3c2cnn3CCO)c(=O)[nH]1 [Compound B-146] | 10 to 50
Cc1cc(C)c(CNC(=O)c2cc(O)nc3c2cnn3C(C)C)c(=O)[nH]1 [Compound B-147] | 10 to 50
Cc1cc(C)c(CNC(=O)c2cc(C3=CC(C)(C)NC(C)(C)C3)nc3c2cnn3Cc2ccccc2)c(=O)[nH]1 [Compound B-151] | 10 to 50
Cc1cc(C)c(CNC(=O)c2cc(C3=CC(C)(C)NC(C)(C)C3)nc3c2cnn3CCN(C)C)c(=O)[nH]1 [Compound B-152] | 10 to 50
Cc1cc(C)c(CNC(=O)c2cc(C3=CC(C)(C)NC(C)(C)C3)nc3c2cnn3C)c(=O)[nH]1 [Compound B-153] | 10 to 50
CC(=O)n1ncc2c(C(=O)NCc3c(C)cc(C)[nH]c3=O)cc(C3=CC(C)(C)NC(C)(C)C3)nc21 [Compound B-154] | 10 to 50
C=CCn1ncc2c(C(=O)NCc3c(C)cc(C)[nH]c3=O)cc(C3=CC(C)(C)NC(C)(C)C3)nc21 [Compound B-155] | 10 to 50
CCOC(=O)Cn1ncc2c(C(=O)NCc3c(C)cc(C)[nH]c3=O)cc(C3=CC(C)(C)NC(C)(C)C3)nc21 [Compound B-156] | 10 to 50
Cc1cc(C)c(CNC(=O)c2cc(C3=CC(C)(C)NC(C)(C)C3)nc3c2cnn3CC(F)(F)F)c(=O)[nH]1 [Compound B-164] | 3 to 10
Cc1cc(C)c(CNC(=O)c2cc(-c3ccc(CN4CCOCC4)nc3)cc3c2cnn3C2CCCC2)c(=O)[nH]1 [Compound C-2, 1-cyclopentyl-N-((4,6-dimethyl-2-oxo-1,2-dihydropyridin-3-yl)methyl)-6-(6-(morpholinomethyl)pyridin-3-yl)-1H-indazole-4-carboxamide] | < 0.3
Cc1cc(C)c(CNC(=O)c2cc(-c3ccc(CN(C)C)cc3)cc3c2cnn3C2CCCC2)c(=O)[nH]1 [Compound C-3, 1-cyclopentyl-N-((4,6-dimethyl-2-oxo-1,2-dihydropyridin-3-yl)methyl)-6-(4-((dimethylamino)methyl)phenyl)-1H-indazole-4-carboxamide] | < 0.3
Cc1cc(C)c(CNC(=O)c2cc(-c3ccc(COCCCN(C)C)cc3)cc3c2cnn3C2CCCC2)c(=O)[nH]1 [Compound C-4, 1-cyclopentyl-N-((4,6-dimethyl-2-oxo-1,2-dihydropyridin-3-yl)methyl)-6-(4-((3-(dimethylamino)propoxy)methyl)phenyl)-1H-indazole-4-carboxamide] | < 0.3
Cc1cc(C)c(CNC(=O)c2cc(-c3ccc(CN4CCOCC4)cc3)cc3c2cnn3C(C)C)c(=O)[nH]1 [Compound C-5, N-((4,6-dimethyl-2-oxo-1,2-dihydropyridin-3-yl)methyl)-1-isopropyl-6-(4-(morpholinomethyl)phenyl)-1H-indazole-4-carboxamide] | < 0.3
Cc1cc(C)c(CNC(=O)c2cc(-c3ccc(CN4CCOCC4)cc3C)cc3c2cnn3C2CCCC2)c(=O)[nH]1 [Compound C-6, 1-cyclopentyl-N-((4,6-dimethyl-2-oxo-1,2-dihydropyridin-3-yl)methyl)-6-(2-methyl-4-(morpholinomethyl)phenyl)-1H-indazole-4-carboxamide] | < 0.3
Cc1cc(C)c(CNC(=O)c2cc(-c3cccc(CO)c3)cc3c2cnn3C2CCCC2)c(=O)[nH]1 [Compound C-8, 1-cyclopentyl-N-((4,6-dimethyl-2-oxo-1,2-dihydropyridine-3-yl)methyl)-6-(3-(hydroxymethyl)phenyl)-1H-indazole-4-carboxamide] | 0.3 to 1
Cc1cc(C)c(CNC(=O)c2cc(-c3cccc(CNCCO)c3)cc3c2cnn3C2CCCC2)c(=O)[nH]1 [Compound C-9, 1-cyclopentyl-N-((4,6-dimethyl-2-oxo-1,2-dihydropyridin-3-yl)methyl)-6-(3-(((2-hydroxyethyl)amino)methyl)phenyl)-1H-indazole-4-carboxamide] | < 0.3
CNCCCOc1cccc(-c2cc(C(=O)NCc3c(C)cc(C)[nH]c3=O)c3cnn(C4CCCC4)c3c2)c1 [Compound C-10, 1-cyclopentyl-N-((4,6-dimethyl-2-oxo-1,2-dihydropyridin-3-yl)methyl)-6-(3-(3-(methylamino)propoxy)phenyl)-1H-indazole-4-carboxamide] | < 0.3
Cc1cc(C)c(CNC(=O)c2cc(-c3cccc(OCCCN(C)C)c3)cc3c2cnn3C2CCCC2)c(=O)[nH]1 [Compound C-11, 1-cyclopentyl-N-((4,6-dimethyl-2-oxo-1,2-dihydropyridin-3-yl)methyl)-6-(3-(3-(dimethylamino)propoxy)phenyl)-1H-indazole-4-carboxamide] | < 0.3

Compound | IC50 [µM]
CNCCCOc1ccc(-c2cc(C(=O)NCc3c(C)cc(C)[nH]c3=O)c3cnn(C4CCCC4)c3c2)cc1 [Compound C-12, 1-cyclopentyl-N-((4,6-dimethyl-2-oxo-1,2-dihydropyridin-3-yl)methyl)-6-(4-(3-(methylamino)propoxy)phenyl)-1H-indazole-4-carboxamide] | < 0.3
Cc1cc(C)c(CNC(=O)c2cc(-c3ccc(CN4CCC[C@@H]4C(N)=O)cc3)cc3c2cnn3C2CCCC2)c(=O)[nH]1 [Compound C-13, (R)-6-(4-((2-carbamoylpyrrolidin-1-yl)methyl)phenyl)-1-cyclopentyl-N-((4,6-dimethyl-2-oxo-1,2-dihydropyridin-3-yl)methyl)-1H-indazole-4-carboxamide] | < 0.3
Cc1cc(C)c(CNC(=O)c2cc(-c3ccc(CN4CCOCC4)cn3)cc3c2cnn3C2CCCC2)c(=O)[nH]1 [Compound C-15, 1-cyclopentyl-N-((4,6-dimethyl-2-oxo-1,2-dihydropyridin-3-yl)methyl)-6-(5-(morpholinomethyl)pyridin-2-yl)-1H-indazole-4-carboxamide] | < 0.3
Cc1cc(C)c(CNC(=O)c2cc(-c3ccc(C)c(S(N)(=O)=O)c3)cc3c2cnn3C2CCCC2)c(=O)[nH]1 [Compound C-16] | < 0.3
Cc1cc(C)c(CNC(=O)c2cc(-c3ccc(CN(C)CCCN(C)C)cc3)cc3c2cnn3C2CCCC2)c(=O)[nH]1 [Compound C-17] | < 0.3
Cc1cc(C)c(CNC(=O)c2cc(-c3ccc(COCCCN4CCOCC4)cc3)cc3c2cnn3C2CCCC2)c(=O)[nH]1 [Compound C-18] | < 0.3
Cc1cc(C)c(CNC(=O)c2cc(-c3cccc(C[N+](C)(C)CCO)c3)cc3c2cnn3C2CCCC2)c(=O)[nH]1 [Compound C-19] | < 0.3
Cc1cc(C)c(CNC(=O)c2cc(-c3ccc(COCCN4CCOCC4)cc3)cc3c2cnn3C2CCCC2)c(=O)[nH]1 [Compound C-20] | < 0.3
Cc1cc(C)c(CNC(=O)c2cc(-c3cccnc3)cc3c2cnn3C2CCCC2)c(=O)[nH]1 [Compound C-21] | < 0.3
Cc1cc(C)c(CNC(=O)c2cc(-c3cccc(COCCN(C)C)c3)cc3c2cnn3C2CCCC2)c(=O)[nH]1 [Compound C-22] | < 0.3
Cc1cc(C)c(CNC(=O)c2cc(-c3cccc(COCCN)c3)cc3c2cnn3C2CCCC2)c(=O)[nH]1 [Compound C-23] | < 0.3
Cc1cc(C)c(CNC(=O)c2cc(-c3cccc(CN4CCN(C)CC4)c3)cc3c2cnn3C(C)C)c(=O)[nH]1 [Compound C-24] | < 0.3
Cc1cc(C)c(CNC(=O)c2cc(-c3ccc(CN4CCNC(=O)C4)cc3)cc3c2cnn3C2CCCC2)c(=O)[nH]1 [Compound C-25] | < 0.3
Cc1cc(CN(C)C)c(CNC(=O)c2cc(-c3ccc(CN4CCOCC4)cc3)cc3c2cnn3C2CCCC2)c(=O)[nH]1 [Compound C-26] | < 0.3
CCOc1ccc(S(=O)(=O)N2CCN(C)CC2)cc1-c1cc(C(=O)NCc2c(C)cc(C)[nH]c2=O)c2cnn(C3CCCC3)c2c1 [Compound C-27] | < 0.3
Cc1cc(C)c(CNC(=O)c2cc(-c3ccc(CN4CCOCC4)c(Cl)c3)cc3c2cnn3C2CCCC2)c(=O)[nH]1 [Compound C-28] | < 0.3
Cc1cc(C)c(CNC(=O)c2cc(-c3cccc(CN(C)CCO)c3)cc3c2cnn3C2CCCC2)c(=O)[nH]1 [Compound C-29] | < 0.3
Cc1cc(C)c(CNC(=O)c2cc(-c3cnc(N)nc3)cc3c2cnn3C2CCCC2)c(=O)[nH]1 [Compound C-30] | < 0.3
Cc1cc(C)c(CNC(=O)c2cc(-c3ccc(CN(C)C)cc3)cc3c2cnn3C2CCN(C(=O)C(C)(C)C)CC2)c(=O)[nH]1 [Compound C-31] | < 0.3
Cc1cc(C)c(CNC(=O)c2cc(-c3ccc(CN4CCOCC4)cc3Cl)cc3c2cnn3C2CCCC2)c(=O)[nH]1 [Compound C-32] | < 0.3
Cc1cc(C)c(CNC(=O)c2cc(-c3cnn(CCN4CCOCC4)c3)cc3c2cnn3C2CCCC2)c(=O)[nH]1 [Compound C-33] | < 0.3
Cc1cc(C)c(CNC(=O)c2cc(-c3cnn(CCN4CCOCC4)c3)cc3c2cnn3C2CCN(C(=O)C(C)(C)C)CC2)c(=O)[nH]1 [Compound C-34] | < 0.3
Cc1cc(C)c(CNC(=O)c2cc(-c3ccc(OCCCN(C)C)cc3)cc3c2cnn3C2CCCC2)c(=O)[nH]1 [Compound C-35] | < 0.3
Cc1cc(C)c(CNC(=O)c2cc(C3=CC(C)(C)NC(C)(C)C3)cc3c2cnn3C2CCCC2)c(=O)[nH]1 [Compound D-2, 1-cyclopentyl-N-((4,6-dimethyl-2-oxo-1,2-dihydropyridin-3-yl)methyl)-6-(2,2,6,6-tetramethyl-1,2,3,6-tetrahydropyridin-4-yl)-1H-indazole-4-carboxamide] | < 0.3
